From patent publication US20230210902A1, “SARS-COV-2-SPECIFIC T CELLS” (priority 2020, published 2023)

System: CTLs from Cas9 control and NR3C1 KO groups
Assay: Annexin V apoptosis assay with dexamethasone
Format: cell-based, human
Settings: 200 µM, 72 hours
Procedure: Annexin V apoptosis assay was performed to evaluate the effect of dexamethasone on the viability of CTLs from Cas9 control and NR3C1 KO groups. CTLs from both groups were treated with 200 µM dexamethasone (Sigma) for 72 hours. Cells were then collected, washed with annexin V buffer, and stained with annexin V (V500; BD Biosciences) and live/dead viability dye (efluor 660; Invitrogen) in addition to CD3 APC Cy7 (Biolegend, Clone HIT3A), CD4 APC (E Biosciences, Clone SK3), and CD8 PerCP Cy5.5 (Biolegend, Clone SK1). The proportion of apoptotic (positive for annexin V) and dead CTLs (positive for live/dead stain) was determined by flow cytometry.

With `C[C@@H]1C[C@H]2[C@@H]3CCC4=CC(=O)C=C[C@]4(C)[C@@]3(F)[C@@H](O)C[C@]2(C)[C@@]1(O)C(=O)CO` [Dex, dexamethasone] the “viability of control Cas9 COVID-19 CTLs” value was “absence of viable cells”.
